# Results as given in PubChem BioAssay (NCI).
#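 GI50 = concentration required for 50% inhibition of growth. The concentration for full growth arrest is given as TGI.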
# Experiments:
# Test in all cases: NCI-60 cell line screen, 384-well format
# SW-620 colon = tested on: SW-620 colon
# HCC-2998 colon = tested on: HCC-2998 colon
# SK-MEL-2 melanoma = tested on: SK-MEL-2 melanoma
# MDA-MB-468 breast = tested on: MDA-MB-468 breast
# MOLT-4 leukemia = tested on: MOLT-4 leukemia
# NCI-H23 lung = tested on: NCI-H23 lung
# TK-10 renal = tested on: TK-10 renal
# U251 glioblastoma = tested on: U251 glioblastoma
# BT-549 breast = tested on: BT-549 breast
# NCI-H522 lung = tested on: NCI-H522 lung
# DU-145 prostate = tested on: DU-145 prostate
# HOP-62 NSCLC = tested on: HOP-62 NSCLC
# PC-3 prostate = tested on: PC-3 prostate
# HL-60(TB) leukemia = tested on: HL-60(TB) leukemia
# HCT-15 colon = tested on: HCT-15 colon
# SK-MEL-28 melanoma = tested on: SK-MEL-28 melanoma
# NCI-H460 NSCLC = tested on: NCI-H460 NSCLC
# NCI/ADR-RES ovarian = tested on: NCI/ADR-RES ovarian
# NCI-H226 lung = tested on: NCI-H226 lung
# LOX IMVI melanoma = tested on: LOX IMVI melanoma
# MCF7 breast = tested on: MCF7 breast
# M14 melanoma = tested on: M14 melanoma
# SF-539 CNS = tested on: SF-539 CNS
# CAKI-1 renal = tested on: CAKI-1 renal
# NCI-H322M lung = tested on: NCI-H322M lung
# SN12C renal = tested on: SN12C renal
# KM12 colon = tested on: KM12 colon
# OVCAR-8 ovarian = tested on: OVCAR-8 ovarian
# SK-MEL-5 melanoma = tested on: SK-MEL-5 melanoma
# ACHN renal = tested on: ACHN renal
# 786-0 renal = tested on: 786-0 renal
# SF-295 CNS = tested on: SF-295 CNS
# HS 578T breast = tested on: HS 578T breast
# A498 renal = tested on: A498 renal
# SF-268 CNS = tested on: SF-268 CNS
# HT29 colon = tested on: HT29 colon
# UACC-62 melanoma = tested on: UACC-62 melanoma
# MALME-3M melanoma = tested on: MALME-3M melanoma
# COLO 205 colon = tested on: COLO 205 colon
# SNB-75 CNS = tested on: SNB-75 CNS
# SNB-19 CNS = tested on: SNB-19 CNS
# UACC-257 melanoma = tested on: UACC-257 melanoma
# HCT-116 colon = tested on: HCT-116 colon
# HOP-92 NSCLC = tested on: HOP-92 NSCLC
# OVCAR-4 ovarian = tested on: OVCAR-4 ovarian
# RXF 393 renal = tested on: RXF 393 renal
# IGROV1 ovarian = tested on: IGROV1 ovarian
# EKVX NSCLC = tested on: EKVX NSCLC
# RPMI-8226 leukemia = tested on: RPMI-8226 leukemia
# OVCAR-3 ovarian = tested on: OVCAR-3 ovarian
# MDA-MB-435 melanoma = tested on: MDA-MB-435 melanoma
# SK-OV-3 ovarian = tested on: SK-OV-3 ovarian
# A549 NSCLC = tested on: A549 NSCLC
# CCRF-CEM leukemia = tested on: CCRF-CEM leukemia
compound,measurement,setting,value
O=C1c2ccccc2C(=O)C(Cl)C1Cl (stereo not drawn),GI50,SW-620 colon,1.63 µM
same,TGI,SW-620 colon,3.02 µM
same,GI50,HCC-2998 colon,14.1 µM
same,TGI,HCC-2998 colon,27.2 µM
same,GI50,SK-MEL-2 melanoma,1.91 µM
same,TGI,SK-MEL-2 melanoma,3.32 µM
same,GI50,MDA-MB-468 breast,1.53 µM
same,TGI,MDA-MB-468 breast,2.87 µM
same,GI50,MOLT-4 leukemia,1.36 µM
same,TGI,MOLT-4 leukemia,2.65 µM
same,GI50,NCI-H23 lung,1.76 µM
same,TGI,NCI-H23 lung,3.92 µM
same,GI50,TK-10 renal,1.58 µM
same,TGI,TK-10 renal,2.93 µM
same,GI50,U251 glioblastoma,16.2 µM
same,TGI,U251 glioblastoma,30 µM
same,GI50,BT-549 breast,1.56 µM
same,TGI,BT-549 breast,2.91 µM
same,GI50,NCI-H522 lung,1.5 µM
same,TGI,NCI-H522 lung,2.84 µM
same,GI50,DU-145 prostate,1.15 µM
same,TGI,DU-145 prostate,2.55 µM
same,GI50,HOP-62 NSCLC,3.33 µM
same,TGI,HOP-62 NSCLC,11.3 µM
same,GI50,PC-3 prostate,1.73 µM
same,TGI,PC-3 prostate,3.59 µM
same,GI50,HL-60(TB) leukemia,0.243 µM
same,TGI,HL-60(TB) leukemia,0.743 µM
same,GI50,HCT-15 colon,1.42 µM
same,TGI,HCT-15 colon,2.75 µM
same,GI50,SK-MEL-28 melanoma,3.24 µM
same,TGI,SK-MEL-28 melanoma,9.55 µM
same,GI50,NCI-H460 NSCLC,14 µM
same,TGI,NCI-H460 NSCLC,27.2 µM
same,GI50,NCI/ADR-RES ovarian,11.2 µM
same,TGI,NCI/ADR-RES ovarian,23.3 µM
same,GI50,NCI-H226 lung,1.41 µM
same,TGI,NCI-H226 lung,2.77 µM
same,GI50,LOX IMVI melanoma,0.0967 µM
same,TGI,LOX IMVI melanoma,17.4 µM
same,GI50,MCF7 breast,1.39 µM
same,TGI,MCF7 breast,2.72 µM
same,GI50,M14 melanoma,1.89 µM
same,TGI,M14 melanoma,3.39 µM
same,GI50,SF-539 CNS,1.69 µM
same,TGI,SF-539 CNS,3.08 µM
same,GI50,CAKI-1 renal,1.66 µM
same,TGI,CAKI-1 renal,3.03 µM
same,GI50,NCI-H322M lung,16.3 µM
same,TGI,NCI-H322M lung,30 µM
same,GI50,SN12C renal,1.81 µM
same,TGI,SN12C renal,3.46 µM
same,GI50,KM12 colon,13.7 µM
same,TGI,KM12 colon,26.8 µM
same,GI50,OVCAR-8 ovarian,1.67 µM
same,TGI,OVCAR-8 ovarian,3.07 µM
same,GI50,SK-MEL-5 melanoma,2.31 µM
same,TGI,SK-MEL-5 melanoma,9.5 µM
same,GI50,ACHN renal,1.38 µM
same,TGI,ACHN renal,2.68 µM
same,GI50,786-0 renal,1.87 µM
same,TGI,786-0 renal,4.85 µM
same,GI50,SF-295 CNS,15.2 µM
same,TGI,SF-295 CNS,28.5 µM
same,GI50,HS 578T breast,12.7 µM
same,TGI,HS 578T breast,25.3 µM
same,GI50,A498 renal,17.7 µM
same,TGI,A498 renal,31.6 µM
same,GI50,SF-268 CNS,13.9 µM
same,TGI,SF-268 CNS,27 µM
same,GI50,HT29 colon,2.78 µM
same,TGI,HT29 colon,8.03 µM
same,GI50,UACC-62 melanoma,1.37 µM
same,TGI,UACC-62 melanoma,2.85 µM
same,GI50,MALME-3M melanoma,1.76 µM
same,TGI,MALME-3M melanoma,3.15 µM
same,GI50,COLO 205 colon,1.84 µM
same,TGI,COLO 205 colon,3.26 µM
same,GI50,SNB-75 CNS,7.16 µM
same,TGI,SNB-75 CNS,20.5 µM
same,GI50,SNB-19 CNS,14.1 µM
same,TGI,SNB-19 CNS,27.2 µM
same,GI50,UACC-257 melanoma,1.94 µM
same,TGI,UACC-257 melanoma,3.36 µM
same,GI50,HCT-116 colon,1.62 µM
same,TGI,HCT-116 colon,3.01 µM
same,GI50,HOP-92 NSCLC,1.64 µM
same,TGI,HOP-92 NSCLC,3 µM
same,GI50,OVCAR-4 ovarian,1.21 µM
same,TGI,OVCAR-4 ovarian,2.46 µM
same,GI50,RXF 393 renal,1.63 µM
same,TGI,RXF 393 renal,3 µM
same,GI50,IGROV1 ovarian,1.33 µM
same,TGI,IGROV1 ovarian,4.33 µM
same,GI50,EKVX NSCLC,7.02 µM
same,TGI,EKVX NSCLC,20.4 µM
same,GI50,RPMI-8226 leukemia,1.55 µM
same,TGI,RPMI-8226 leukemia,2.9 µM
same,GI50,OVCAR-3 ovarian,1.6 µM
same,TGI,OVCAR-3 ovarian,2.95 µM
same,GI50,MDA-MB-435 melanoma,1.83 µM
same,TGI,MDA-MB-435 melanoma,3.4 µM
same,GI50,SK-OV-3 ovarian,13.2 µM
same,TGI,SK-OV-3 ovarian,26.1 µM
same,GI50,A549 NSCLC,15.1 µM
same,TGI,A549 NSCLC,28.7 µM
same,GI50,CCRF-CEM leukemia,1.49 µM
same,TGI,CCRF-CEM leukemia,2.84 µM
